Here are results for five compounds from PMC6003606 (Chemical Science, 2016).

One data set relates to MCF-7. Nature of the data set: Cytotoxicity, 72 h exposure, breast carcinoma. In kind it is cell-based, human. The note with it: MCF-7, 72 h exposure.
In a further data set the test system is A549. The data set can be described thus: Cytotoxicity, 72 h exposure, lung carcinoma. The following applies: A549, 72 h exposure. In kind it is cell-based, human.
The test system of a further data set is HCT-15. Nature of the data set: Cytotoxicity, 72 h exposure, colon carcinoma. In kind it is cell-based, human. The following applies: HCT-15, 72 h exposure.
The subject of the next data set is PC3. The data set can be described thus: Cytotoxicity, 72 h exposure, prostate carcinoma. In kind it is cell-based, human. The note with it: PC3, 72 h exposure.
Another data set relates to A498. Nature of the data set: Cytotoxicity, 72 h exposure, kidney carcinoma. It counts as cell-based, human. The following applies: A498, 72 h exposure.
The test system of a further data set is BxPC3. The data set can be described thus: Cytotoxicity, 72 h exposure, pancreatic carcinoma. It counts as cell-based, human. The note with it: BxPC3, 72 h exposure.
A further data set deals with A375. The data set can be described thus: Cytotoxicity, 72 h exposure, melanoma. The note with it: A375, 72 h exposure. It counts as cell-based, human.
The test system of data set [1] is cancer cell lines (panel). The data set can be described thus: Cytotoxicity averaged or compared over the cancer cell line panel. It counts as cell-based, human. The note with it: for IC50: read-out: average IC50.
Data set [2] deals with HDAC activity in MCF-7 cells. The note with it: free ligand; reported values, no reference given; cited from earlier work.
The next data set has as its system A2780. The data set can be described thus: Cytotoxicity, 72 h exposure, cisplatin-sensitive ovarian cancer cells. In kind it is cell-based, human. The following applies: A2780, 72 h exposure.
The test system of the next data set is A2780cisR. Nature of the data set: Cytotoxicity, 72 h exposure, cisplatin-resistant ovarian cancer cells. In kind it is cell-based, human.
The mark [3] stands for this setting: average over five cancer cell lines.
Where [4] appears, read: average over the seven cancer cell lines.

Where two headings read alike, the source gives them in different places.

By IC50 is commonly meant the concentration needed to halve the response being measured. `N.N.[Cl-].[Cl-].[OH-].[OH-].[Pt+4]` [IX, ctc-[Pt(NH3)2(OH)2Cl2]]: the IC50 amounted to 11.5 ± 3.71 µM in the data set with MCF-7; 22.5 ± 4.54 µM in the data set on A549; 15.3 ± 3.23 µM in the data set on HCT-15; 2.98 ± 1.35 µM in the data set on PC3; 22 ± 0.85 µM with A498; 6.23 ± 1.47 µM with BxPC3. Also, the IC50 is 1.93 ± 0.75 µM with A375 and 7 µM in data set [1] (setting [3]).
For `CCCC(CCC)C(=O)O` [VPA, valproate], in [1] (tested cancer cell lines), the “cytotoxic IC50 of uncoordinated HDAC inhibitor ligands” value is reported as “millimolar range”. For the same compound, in [2], the “IC50 of extracellular ligand for cellular HDAC activity” value was “mM range”.
Consider `N.N.[Cl][Pt][Cl]` [cisplatin], for which the IC50 with A2780 came out at 2.8 ± 0.2 µM; with A2780cisR, 13.8 ± 0.2 µM; in the data set on MCF-7, 17.4 ± 0.2 µM; in the data set on A549 it was 8.35 ± 0.87 µM; in the data set on HCT-15, 11.3 ± 1.06 µM; in the data set on PC3, 2.25 ± 0.82 µM. The IC50 in the data set on A498 came to 17.5 ± 1.21 µM; in the data set on BxPC3 it was 11.4 ± 1.14 µM; in the data set with A375, 4.03 ± 0.95 µM; in [1] (setting [4]) it was 10.3 µM; in [1] (over the nine cell lines) it was 9.9 µM.
On to `O=C1[O][Pt]2([NH][C@@H]3CCCC[C@H]3[NH]2)[O]C1=O` [oxaliplatin], for which the IC50 was found to be 0.52 ± 0.27 µM in the data set with A2780; 4.2 ± 1.6 µM in the data set with A2780cisR; 3.36 ± 0.2 µM in the data set with MCF-7; 1.46 ± 0.31 µM in the data set on A549; 1.15 ± 0.43 µM with HCT-15; 5.24 ± 0.86 µM in the data set with PC3. In addition, the IC50 with A498 worked out at 7.94 ± 1.04 µM; in the data set on BxPC3, 4.15 ± 0.93 µM; in the data set on A375, 6.3 ± 1.11 µM; in [1] (setting [4]), 4.2 µM.
For [Pt(DACH)(OH)2(ox)], the half-maximal inhibitory concentration (IC50) was 19.9 ± 1.41 µM with MCF-7; 26.1 ± 2.89 µM with A549; 18.9 ± 3.18 µM in the data set on HCT-15; 5.85 ± 1.08 µM in the data set on PC3; 24.4 ± 5.35 µM with A498; 14.3 ± 2.09 µM in the data set on BxPC3. The IC50 worked out at 6.85 ± 1.55 µM with A375 and 13.2 µM in [1] (setting [3]).
